Columns and labels:
[1] = test system: bone marrow-derived macrophages; assay: SIINFEKL antigen cross-presentation (XPT) by polarized bone marrow derived macrophages, MHCI-SIINFEKL antibody, FACS; format: cell-based, mouse; conditions: M1 polarized macrophages pre-treated with NextA, OVA peptide 24 hours
Protocol: FIG. 1 is a line graph showing the SIINFEKL antigen levels derived from OVA peptide and detected by MHCI-SIINFEKL specific antibody as measured by FACS in bone marrow-derived macrophages from wild type or HDAC6 KO (knockout) mice. Macrophages were pre-treated with Nexturastat A (NextA) 5 μM and then polarized for 24 hours.
FIG. 2 is a graph showing the MHCI-SIINFEKL levels in polarized macrophages derived from wild-type mice pre-treated with NextA and incubated with OVA peptide for 24 hours.
Bone marrow derived macrophages: For macrophage isolation, bone marrow from 6-12 weeks old C57BL/6 mouse was used following an IACUC approved protocol. Briefly, femurs and tibia bones were isolated after removing the skeletal muscles. The bone marrow was flushed with RPMI complete medium supplemented with non-essential amino acids. A single-cell suspension of bone marrow was prepared with repeated pipetting and incubated with 20 ng/mL of mouse recombinant M-CSF (Biolegend) at 37° C. for 4 days to differentiate into macrophages. […]
Endogenous peptides are usually presented through MHC-I to CD8 T-cells and exogenous (from other cells such as tumors) peptides through MHC-II to CD4 T-cells. […] Taking advantage of a highly specific antibody recognizing MHC-I loaded with SIINFEKL peptide, efficiency of antigen XPT was determined. […]

[2] = test system: Bone marrow derived macrophages (BMDMs); assay: Polarization of bone marrow derived macrophages to M1 (LPS/IFNγ) or M2 (IL4/IL13) phenotype by flow cytometry; format: cell-based, mouse
Protocol: (§1) Bone marrow derived macrophages: For macrophage isolation, bone marrow from 6-12 weeks old C57BL/6 mouse was used following an IACUC approved protocol. Briefly, femurs and tibia bones were isolated after removing the skeletal muscles. The bone marrow was flushed with RPMI complete medium supplemented with non-essential amino acids. A single-cell suspension of bone marrow was prepared with repeated pipetting and incubated with 20 ng/mL of mouse recombinant M-CSF (Biolegend) at 37° C. for 4 days to differentiate into macrophages.
(§2) Flow cytometry: Flow cytometry was performed following the protocol described previously. Knox et al., Sci Rep. 2019 Oct. 10; 9(1):14824. doi: 10.1038/s41598-019-51403-6. Briefly, mice were euthanized following the IACUC protocol, and tumor cells were processed into a single cell suspension for analysis by flow cytometry with tumor digestion buffer. The following antibodies were used to stain cell surface markers expressed by different immune cells. All the antibodies were purchased from Biolegend (San Diego, CA) unless otherwise specified. Myeloid cell surface markers are as follows: APC anti-mouse CD80 (clone 16-10A1), PE/Cy7 anti-mouse CD206 (MMR) (clone C068C2), APC/Fire™ 750 anti-mouse CD45.2 (clone 104), FITC anti-mouse H-2 (clone M1/42), Brilliant Violet 785™ anti-mouse F4/80 (clone BM8), and Alexa Fluor® 700 anti-mouse CD3 (clone 17A2). To distinguish between MHCI and MHCI-bound to SIINFEKL, we used APC anti-mouse H-2Kb bound to SIINFEKL antibody (clone 25-D1.16). Multi-color flow data acquisition was performed on BD Celesta, and data analysis was performed with FlowJo software (version 10.3). Statistical analyses were performed with GraphPad Prism Software (version 7.03).
Bone marrow derived macrophages (BMDMs) isolated from femur and tibia of C57BL/6 mouse were differentiated into macrophages with M-CSF. These naïve macrophages were pre-treated with NextA and polarized to M1 macrophages with LPS/IFNγ or M2 macrophages with IL4/IL13.

[3] = test system: bone marrow derived macrophages; assay: Gene expression of polarization markers, cytokines and antigen processing genes in macrophages by quantitative real-time PCR; format: cell-based, mouse
Protocol: Quantitative analysis of gene expression. Total RNA was isolated from cells following the manufacturer's instructions of QIAzol lysis reagent (Qiagen, 79306). RNA quantification was done using a NanoDrop One spectrophotometer (NanoDrop Technologies). Samples with absorbance at 260/280 nm ratios over 1.9 were used for cDNA synthesis with the iScript cDNA synthesis kit (Bio-Rad, 1708891). Synthesized cDNA from 1 μg of total RNA was diluted 1:10 with nuclease-free water. The quantitative PCR analysis was performed using iQ SYBR Green Supermix (Bio-Rad, 1708882) on a CFX96 real-time system (Bio-Rad). Gene expression analysis was performed using the 2^−ΔΔCt method, and target mRNA levels were normalized to GAPDH expression. Cycling conditions were used as per the manufacturer's instructions. Single PCR product amplification was confirmed by melting curve analysis in all the experiments performed.
as §1
Further validation of M2 polarization markers at gene expression levels by quantitative real-time PCR indicate that Arginase I, IL-10 and TGFβ, which are tumor-promoting factors, were decreased. FIG. 9, FIG. 10, and FIG. 11. The expression of M1 polarization markers and anti-tumor, pro-inflammatory cytokines such as TNFα and IL-1B were increased. FIG. 12 and FIG. 13.

[4] = test system: Macrophages
[5] = test system: SM1-OVA murine melanoma cells; assay: MHCI and MHCI-SIINFEKL levels in SM1-OVA melanoma cells by flow cytometry; format: cell-based, mouse; conditions: for MHC-I mediated SIINFEKL antigen presentation: over time
Protocol: FIG. 3 is a bar graph showing the MHCI and MHCI-SIINFEKL levels after SM1-OVA (SM1 cells expressing OVA peptide) melanoma cells were treated with 5 μM NextA for 24 hours. MHCI and MHCI-SIINFEKL levels were measured by FACS.
FIG. 25 is a panel of four bar graphs showing the MHCI-SIINFEKL levels when SM1 cells stably expressing OVA (SM1-OVA cells) peptide are exposed to 4 Gy of radiation, NextA, or a combination at the times indicated. MHC-I mediated SIINFEKL antigen presentation was measured by flow cytometry.
Cell culture: SM1 murine melanoma cells were obtained from Dr. A. Ribas at the University of California, Los Angeles, and cultured in an incubator in RPMI 1640, 1% penicillin-streptomycin, and 10% fetal bovine serum at 37° C. with 5% CO2.
as §2
The combination of radiation and HDAC6 inhibition increases antigen presentation in a time dependent manner. […] Radiation with HDAC6 inhibition increases antigen presentation in tumor cells. FIG. 25. The sequencing of NextA and radiation treatment for effective antigen presentation in tumor cells is show in FIG. 26.

[6] = M1 macrophages compared to M0 after treatment
[7] = pre-treated polarized macrophages

## CCCCN(Cc1ccc(C(=O)NO)cc1)C(=O)Nc1ccccc1 [NextA, Nexturastat A]
[1]
  M1 XPT (cross-presentation of SIINFEKL peptide by MHC-I): increased
[2]; data not shown
  pro-tumoral M2 phenotype of macrophages: reduced
[2]; pre-treatment of naïve macrophages, then IL4/IL13
  polarization of M2 macrophages: decreased
[2]; pre-treatment of naïve macrophages, then LPS/IFNγ
  polarization of M1 macrophages: did not affect
[3]; M0 macrophages
  IL1 beta expression (M1 pro-inflammatory cytokine): increases
  IL10 expression (M2 anti-inflammatory cytokine): decreased
  IL12 expression (M1 pro-inflammatory cytokine): increases
  TGF beta expression (M2 anti-inflammatory cytokine): decreased
  TNF alpha expression (M1 pro-inflammatory cytokine): increases
[3]; [6]
  ERAP1 gene expression: increased
  TAP1 gene expression: increased
  TAP2 gene expression: increased
  TAPBP gene expression: increased
[3]; [7]
  Arginase I gene expression (M2 polarization marker): decreased
  IL-1B gene expression (M1 marker): increased
  IL-10 gene expression (M2 marker): decreased
  TGFβ gene expression (M2 marker): decreased
  TNFα gene expression (M1 marker): increased
[4]
  concentration over which high cytotoxicity is induced: over 5 μM
[5]; 5 μM NextA for 24 hours
  presence of MHC I: increased
  presence of SIINFEKL-loaded MHC-I: increased
[5]; NextA alone
  MHC-I mediated SIINFEKL antigen presentation: time dependent increases
[5]; NextA in combination with 4 Gy of radiation
  MHC-I mediated SIINFEKL antigen presentation: time dependent increases

Reference: patent US12485174B2, “HDAC6-activated macrophages, compositions, and uses thereof” (The George Washington University, A Congressionally …, priority 2019, dated 2025)
